A short description of data set [1]: Pharmacodynamic study of VD in canines: 10-day subcutaneous infusion in high-rate paced heart failure model. It counts as in vivo, canine. The conditions noted are these: dog, plasma; Day 10 of continuous vessel dilator infusion 100 ng/kg·min SC; Day 0 0.66+/−0.37; read-out: Pre-proANF (56-92) plasma concentration (radioimmunoassay). Here is the method:
A pharmaceutical formulation of VD was prepared in a Tris buffer. 16.0 g glycerol, 6.05 g tris-(hydroxymethyl)-aminomethane (“Tris”), 2.50 g meta cresol were mixed in a 1.00 L volumetric flask. Approximately 900 mL nanopure water was added to the volumetric flask and the mixture was magnetically stirred to reach complete dissolution. 4 normal hydrochloric acid was used to adjust pH to 7.3 at 25° C. Then, the flask was filled to 1 L mark with nanopure water. The pH was rechecked and verified to be 7.3 at 25° C. The pH 7.3 Tris buffer was stored at 2-8° C. until use.
Lyophilized VD peptide (Bachem) was weighted into a glass vial and dissolved into a known volume of the Tris buffer to a concentration between 1 mg/mL and 10 mg/mL. The VD peptide was dissolved by gentle mixing and the solution was allowed to rest for between 20 and 30 minutes. The pH of the solution was checked and adjusted to 7.3 with 0.1 N sodium hydroxide. […]
Seven days prior to the beginning of HRP (Day −7), all dogs were instrumented for ventricular pacing with an IPG (implantable pulse generator) including an RA (right atrium) and RV (right ventricle) lead, and a DSI (Digital Sciences International) device in the femoral artery for arterial blood pressure monitoring. Glomerular filtration rate (GFR) was measured by iohexol clearance on the day before the beginning of HRP (Day −1). […]

The format of data set [2] is physicochemical. From the text:
Elliotts B® Solution is a sterile, non-pyrogenic, isotonic buffer that is approved by the United States Food and Drug Administration (FDA) for intrathecal administration of methotrexate sodium and cytarabine. Elliotts B® Solution will be used as a diluent for VD since it provides the appropriate isotonicity and pH attributes desired for SC administration. […] The detailed contents of Elliots B® Solution are provided in the Trial Dispensing Protocol. Storage conditions of the raw material, Elliotts B® Solution, as well as the reconstitution method will be supplied in a Pharmacy Guideline provided during the study.

Ends that are not written are not given here.

As for “EVVPPQVLSEPNEEAGAALSPLPEVPPWTGEVSPAQR [VD, Vessel Dilator]”, the level at 240 h in data set [1] was 41.1 ng/mL. For the same sequence, the “stability and compatibility of VD in Elliotts B Solution” value in data set [2] is “has been demonstrated”.

Source of the values: US9616107B2, “Therapy for kidney disease and/or heart failure” (priority 2011, dated 2017).
